In one assay the target is T1, serotonin transporter (Rattus norvegicus, UniProt P31652).
T1 construct: synaptosomes isolated in a 0.32M sucrose buffer from a male Wistar rat cortex; from tissue; host or cells: male Wistar rat cortex synaptosomes
The experiment in a line: biochemical. As to conditions: rat synaptosomes, serotonin transporter (SERT).

Assay [1] has as its target T2, norepinephrine transporter (Rattus norvegicus, UniProt Q63380).
T2 construct: synaptosomes isolated in a 0.32 M sucrose buffer from a male Wistar rat hypothalamus; from tissue; host or cells: male Wistar rat hypothalamus synaptosomes
Put plainly: biochemical. It counts as biochemical. To be noted: Rat IC50 (nM) rNET, rat synaptosomes, norepinephrine transporter (NET).

For another assay, the target named is T3, dopamine transporter (Rattus norvegicus, UniProt P23977).
T3 construct: synaptosomes isolated in a 0.32 M sucrose buffer from a male Wistar rat striatum; from tissue; host or cells: male Wistar rat striatum synaptosomes
Put plainly: biochemical. To be noted: rat synaptosomes, dopamine transporter (DAT).

Assay [2] deals with T4, DA Transporter (DAT) Sites in Mouse Brain (Mus musculus, UniProt Q61327).
T4 construct: Striatum was used to determine occupancy of DA transporter sites; from tissue; host or cells: C57BL/6 mouse striatum homogenate
The experiment in a line: Ex vivo [3H] WIN 35428 binding after oral dosing. Set-up: species or system C57BL/6 mice. As to conditions: for % Transporter Occupancy, DAT: 60 minutes after treatment, vs vehicle; for Mean Specific Binding (dpm) ± S.E.M., DAT: mice sacrificed 60 minutes after treatment, striatum.

Assay [3] deals with T5, 5-HT Transporter (SERT) Sites in Mouse Brain (Mus musculus, UniProt Q60857).
T5 construct: Whole brains were removed and cortex and striata dissected out; from tissue; host or cells: C57BL/6 mouse frontal cortex homogenate
The experiment in a line: Ex vivo [3H] citalopram binding after oral dosing. As to conditions: for % Transporter Occupancy, SERT: 60 minutes after treatment, vs vehicle; for Mean Specific Binding (dpm) ± S.E.M., SERT: mice sacrificed 60 minutes after treatment, cortex. Set-up: species or system C57BL/6 mice.

Assay [4] concerns the target human serotonin reuptake transporter (Homo sapiens, UniProt P31645). The experiment in a line: cell-based. As to conditions: recombinant human serotonin transporter (SERT).
Assay [5] addresses human norepinephrine reuptake transporter (Homo sapiens, UniProt P23975). Put plainly: cell-based. As to conditions: recombinant human norepinephrine transporter (NET); read-out: Human IC50 (nM) hNET.
The target in assay [6] is T6, human dopamine reuptake transporter (Homo sapiens, UniProt Q01959).
T6 construct: expressed in transfected cells; host or cells: CHO-K1 or HEK293
The experiment in a line: cell-based. To be noted: recombinant human dopamine transporter (DAT); read-out: Human IC50 (nM) hDAT.

A further assay relates to Rats. The experiment in a line: Rat locomotor activity. The format is in vivo. As to conditions: PO. The procedure:
(§1) In order to ensure effects of the compounds on immobility time were not related to a general stimulant effect on baseline motor activity, locomotor activity was assessed using photocell monitored cages (Med-Associates Inc.). Each test chamber was equipped with infrared photocell beams to measure movement of the animals. Horizontal and vertical activity were measured
(§2) Rats or mice were pretreated with vehicle or test compounds and placed back in home cage, following which they will be individually placed in locomotor cages and activity was monitored in 5 minute intervals for up to 60 min.
(§3) Data were analyzed by one way analysis of variance (ANOVA) followed by post-hoc comparisons where appropriate. An effect was considered significant if p < 0.05. Data are represented as the mean and standard error to the mean (s.e.m).

The target in assay [7] is Norepinephrine Transporter (NET) Sites in Mouse Brain (Mus musculus, UniProt O55192). To be noted: PO; for % Transporter Occupancy, NET: 60 minutes after treatment, vs vehicle; for Mean Specific Binding (dpm) ± S.E.M., NET: mice sacrificed 60 minutes after treatment, cortex.
Another assay relates to mice. The experiment in a line: Mouse locomotor activity. The format is in vivo. To be noted: PO. The procedure: as §1, §2, §3
Setting [8] is: read-out: Human IC50 (nM) hSERT.

Counter-ions that a name gives are not always drawn. Like-named read-outs stand apart in the source and are kept apart here.

In general, IC50 refers to the concentration at which inhibition is half-maximal.

T4 sequence (Q61327 whole entry): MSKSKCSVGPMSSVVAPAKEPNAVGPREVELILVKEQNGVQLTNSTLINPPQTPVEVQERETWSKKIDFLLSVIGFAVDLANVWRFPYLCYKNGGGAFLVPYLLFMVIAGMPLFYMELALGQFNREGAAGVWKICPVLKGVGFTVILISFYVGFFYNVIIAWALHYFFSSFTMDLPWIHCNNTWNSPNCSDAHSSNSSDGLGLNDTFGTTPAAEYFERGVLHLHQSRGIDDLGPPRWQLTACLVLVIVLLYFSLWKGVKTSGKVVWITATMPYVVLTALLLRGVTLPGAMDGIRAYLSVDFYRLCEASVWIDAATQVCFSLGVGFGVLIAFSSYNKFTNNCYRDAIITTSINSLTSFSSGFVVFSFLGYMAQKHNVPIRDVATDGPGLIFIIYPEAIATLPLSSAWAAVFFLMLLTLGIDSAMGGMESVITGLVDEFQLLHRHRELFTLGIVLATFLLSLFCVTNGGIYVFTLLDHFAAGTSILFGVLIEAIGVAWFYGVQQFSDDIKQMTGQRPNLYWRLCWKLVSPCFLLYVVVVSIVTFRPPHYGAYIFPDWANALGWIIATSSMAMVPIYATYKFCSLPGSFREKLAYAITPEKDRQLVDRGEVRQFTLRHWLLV
Sequence of human serotonin reuptake transporter (P31645 whole entry): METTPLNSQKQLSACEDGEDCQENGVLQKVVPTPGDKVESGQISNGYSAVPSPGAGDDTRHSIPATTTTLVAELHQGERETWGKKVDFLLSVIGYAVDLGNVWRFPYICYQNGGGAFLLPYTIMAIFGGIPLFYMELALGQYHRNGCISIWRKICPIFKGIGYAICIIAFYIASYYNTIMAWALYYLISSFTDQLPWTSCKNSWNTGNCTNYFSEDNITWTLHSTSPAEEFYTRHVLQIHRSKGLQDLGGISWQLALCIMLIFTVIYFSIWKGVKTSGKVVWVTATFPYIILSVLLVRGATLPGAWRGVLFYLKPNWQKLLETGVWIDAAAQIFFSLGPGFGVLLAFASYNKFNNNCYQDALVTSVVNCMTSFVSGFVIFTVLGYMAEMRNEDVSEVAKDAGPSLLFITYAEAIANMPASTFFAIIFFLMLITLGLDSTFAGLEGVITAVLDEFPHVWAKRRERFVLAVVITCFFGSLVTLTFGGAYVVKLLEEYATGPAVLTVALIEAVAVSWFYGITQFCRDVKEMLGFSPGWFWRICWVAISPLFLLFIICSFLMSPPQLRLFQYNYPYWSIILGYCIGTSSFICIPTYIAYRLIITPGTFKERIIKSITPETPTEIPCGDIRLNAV
T5 sequence (Q60857 whole entry): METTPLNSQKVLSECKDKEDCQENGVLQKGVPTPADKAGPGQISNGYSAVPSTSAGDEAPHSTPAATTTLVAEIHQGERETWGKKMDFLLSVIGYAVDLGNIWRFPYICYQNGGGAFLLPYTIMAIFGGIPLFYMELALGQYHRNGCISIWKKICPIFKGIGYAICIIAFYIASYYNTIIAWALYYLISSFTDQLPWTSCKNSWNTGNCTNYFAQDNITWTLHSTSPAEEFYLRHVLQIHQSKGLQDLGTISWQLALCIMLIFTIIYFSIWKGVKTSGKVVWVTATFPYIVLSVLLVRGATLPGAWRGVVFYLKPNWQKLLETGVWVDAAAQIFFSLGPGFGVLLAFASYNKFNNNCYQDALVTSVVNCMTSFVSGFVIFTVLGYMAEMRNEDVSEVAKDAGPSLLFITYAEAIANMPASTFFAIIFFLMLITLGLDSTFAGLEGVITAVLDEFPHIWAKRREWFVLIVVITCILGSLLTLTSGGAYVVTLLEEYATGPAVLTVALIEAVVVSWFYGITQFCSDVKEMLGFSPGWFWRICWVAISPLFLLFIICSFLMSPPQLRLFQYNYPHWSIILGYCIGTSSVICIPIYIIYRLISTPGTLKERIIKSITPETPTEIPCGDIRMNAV
Sequence of human norepinephrine reuptake transporter (P23975 whole entry): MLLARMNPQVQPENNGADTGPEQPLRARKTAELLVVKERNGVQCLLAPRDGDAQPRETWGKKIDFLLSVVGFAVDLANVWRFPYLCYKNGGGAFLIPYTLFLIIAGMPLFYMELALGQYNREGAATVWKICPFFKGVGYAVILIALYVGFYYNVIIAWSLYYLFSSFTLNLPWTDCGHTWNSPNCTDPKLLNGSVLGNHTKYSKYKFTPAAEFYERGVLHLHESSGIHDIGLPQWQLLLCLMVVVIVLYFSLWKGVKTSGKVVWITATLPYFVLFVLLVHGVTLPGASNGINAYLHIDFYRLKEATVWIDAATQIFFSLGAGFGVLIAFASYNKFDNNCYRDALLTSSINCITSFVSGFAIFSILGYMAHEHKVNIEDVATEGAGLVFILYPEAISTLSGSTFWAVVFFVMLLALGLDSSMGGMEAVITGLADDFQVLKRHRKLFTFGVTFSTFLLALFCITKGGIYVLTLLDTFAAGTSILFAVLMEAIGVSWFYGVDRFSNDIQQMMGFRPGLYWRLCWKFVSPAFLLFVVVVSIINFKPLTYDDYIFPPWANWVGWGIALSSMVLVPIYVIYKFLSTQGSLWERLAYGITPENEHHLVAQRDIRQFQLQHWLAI
T6 sequence (Q01959 whole entry): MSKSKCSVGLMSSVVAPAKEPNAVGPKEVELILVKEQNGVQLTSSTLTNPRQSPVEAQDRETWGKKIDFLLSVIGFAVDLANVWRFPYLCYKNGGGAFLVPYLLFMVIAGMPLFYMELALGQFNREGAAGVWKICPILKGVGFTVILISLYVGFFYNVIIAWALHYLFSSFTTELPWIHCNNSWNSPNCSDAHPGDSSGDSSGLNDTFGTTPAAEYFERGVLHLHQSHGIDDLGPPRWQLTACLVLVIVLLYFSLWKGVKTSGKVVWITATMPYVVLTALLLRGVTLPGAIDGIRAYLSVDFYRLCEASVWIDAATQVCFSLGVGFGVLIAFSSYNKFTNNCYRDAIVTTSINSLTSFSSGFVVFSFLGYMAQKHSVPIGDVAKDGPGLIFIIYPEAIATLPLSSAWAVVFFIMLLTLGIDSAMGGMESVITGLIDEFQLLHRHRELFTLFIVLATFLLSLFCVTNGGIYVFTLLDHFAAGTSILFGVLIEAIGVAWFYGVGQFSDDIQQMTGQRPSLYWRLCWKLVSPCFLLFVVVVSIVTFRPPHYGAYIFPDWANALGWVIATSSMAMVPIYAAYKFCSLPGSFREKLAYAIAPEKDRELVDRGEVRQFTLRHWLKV
T3 sequence (P23977 whole entry): as the sequence (Q61327 whole entry) above, with P21S, V57A, S194A, R600H, V619L counted along it
T1 sequence (P31652 whole entry): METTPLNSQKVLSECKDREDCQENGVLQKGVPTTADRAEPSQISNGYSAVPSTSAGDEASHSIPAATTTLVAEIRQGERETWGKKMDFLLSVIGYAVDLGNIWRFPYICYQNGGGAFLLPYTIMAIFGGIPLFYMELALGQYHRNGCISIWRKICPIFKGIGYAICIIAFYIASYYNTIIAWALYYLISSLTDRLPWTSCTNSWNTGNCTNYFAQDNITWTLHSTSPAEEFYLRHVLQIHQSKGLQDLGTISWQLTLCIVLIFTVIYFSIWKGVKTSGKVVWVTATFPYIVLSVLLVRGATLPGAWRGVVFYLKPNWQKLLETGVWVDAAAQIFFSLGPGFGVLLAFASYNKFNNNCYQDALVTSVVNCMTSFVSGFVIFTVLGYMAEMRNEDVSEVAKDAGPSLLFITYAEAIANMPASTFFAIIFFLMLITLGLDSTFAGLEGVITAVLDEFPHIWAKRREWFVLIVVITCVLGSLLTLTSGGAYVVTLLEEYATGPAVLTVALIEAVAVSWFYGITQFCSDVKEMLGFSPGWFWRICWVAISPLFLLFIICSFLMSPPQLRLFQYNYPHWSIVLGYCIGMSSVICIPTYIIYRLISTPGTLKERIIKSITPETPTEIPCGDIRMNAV
Sequence of Norepinephrine Transporter (NET) Sites in Mouse Brain (O55192 whole entry): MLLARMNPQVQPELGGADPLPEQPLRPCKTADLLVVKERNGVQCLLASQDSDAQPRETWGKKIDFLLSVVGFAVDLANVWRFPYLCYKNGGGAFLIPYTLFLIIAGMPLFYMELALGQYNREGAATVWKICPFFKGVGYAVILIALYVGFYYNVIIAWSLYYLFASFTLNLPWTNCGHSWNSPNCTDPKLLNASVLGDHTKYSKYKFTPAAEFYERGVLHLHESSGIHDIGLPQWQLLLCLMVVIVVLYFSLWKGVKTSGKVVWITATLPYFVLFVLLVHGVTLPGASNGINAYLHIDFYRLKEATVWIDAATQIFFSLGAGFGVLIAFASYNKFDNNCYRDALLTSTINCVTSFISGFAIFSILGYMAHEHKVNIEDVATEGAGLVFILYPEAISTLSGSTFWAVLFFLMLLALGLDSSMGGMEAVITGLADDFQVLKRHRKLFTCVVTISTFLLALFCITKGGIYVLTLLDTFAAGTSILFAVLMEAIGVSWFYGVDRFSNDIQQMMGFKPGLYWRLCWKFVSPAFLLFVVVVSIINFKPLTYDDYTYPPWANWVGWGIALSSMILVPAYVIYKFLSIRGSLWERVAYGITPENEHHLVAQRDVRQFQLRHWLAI
T2 sequence (Q63380 1-617): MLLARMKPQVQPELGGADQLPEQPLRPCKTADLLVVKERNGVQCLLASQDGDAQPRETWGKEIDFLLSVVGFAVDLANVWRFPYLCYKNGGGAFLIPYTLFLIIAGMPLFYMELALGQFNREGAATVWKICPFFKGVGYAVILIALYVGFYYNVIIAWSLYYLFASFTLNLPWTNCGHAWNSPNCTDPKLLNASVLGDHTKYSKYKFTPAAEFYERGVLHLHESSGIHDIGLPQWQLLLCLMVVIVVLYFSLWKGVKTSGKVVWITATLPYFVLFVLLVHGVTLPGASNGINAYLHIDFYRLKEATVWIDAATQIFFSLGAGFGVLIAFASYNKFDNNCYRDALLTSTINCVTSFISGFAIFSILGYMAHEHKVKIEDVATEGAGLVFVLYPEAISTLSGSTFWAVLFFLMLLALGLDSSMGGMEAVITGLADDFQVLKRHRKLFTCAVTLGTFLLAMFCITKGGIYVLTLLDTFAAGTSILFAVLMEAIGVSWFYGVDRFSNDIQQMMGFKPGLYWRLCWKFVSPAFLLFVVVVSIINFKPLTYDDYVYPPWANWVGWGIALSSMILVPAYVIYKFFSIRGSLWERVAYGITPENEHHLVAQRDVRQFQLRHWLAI

Take `CC(N(C)C)C1(c2ccc3ccccc3c2)CCCCC1` (single isomer, unassigned) [56 E2, N,N-dimethyl-1-(1-(naphthalen-2-yl)cyclohexyl)ethanamine]: the IC50 against serotonin transporter (Rat IC50 (nM) rSERT) was 120 nM; in [1] it was 79 nM; at dopamine transporter (Rat IC50 (nM) rDAT) it was 100 nM.
On to `CNC(C)C1(c2ccc3ccccc3c2)CCCCC1` (single isomer, unassigned) [58 E1, N-methyl-1-(1-(naphthalen-2-yl)cyclohexyl)ethanamine], for which the “% Transporter Occupancy, DAT” value is on record as 7% in [2] (1 mg/kg), 11% in assay [2] (3 mg/kg), -2% in assay [2] (10 mg/kg) and 24% in assay [2] (30 mg/kg). Besides, the “Mean Specific Binding (dpm) ± S.E.M., DAT” value in assay [2] (1 mg/kg) is 15732 ± 1360 dpm; in assay [2] (3 mg/kg), 14938 ± 2613 dpm; in [2] (10 mg/kg), 17215 ± 2151 dpm; in assay [2] (30 mg/kg), 12876 ± 2152 dpm. The molecule also showed an IC50 against serotonin transporter (Rat IC50 (nM) rSERT) of 9.5 nM. Besides, the “% Transporter Occupancy, SERT” value in assay [3] (1 mg/kg) is 5%; in assay [3] (3 mg/kg) it was 11%; in assay [3] (10 mg/kg) it was 47%; in [3] (30 mg/kg) it was 86%. In addition, the “Mean Specific Binding (dpm) ± S.E.M., SERT” value in assay [3] (1 mg/kg) amounted to 3245 ± 107 dpm; in [3] (3 mg/kg), 3021 ± 182 dpm; in [3] (10 mg/kg), 1799 ± 115 dpm; in assay [3] (30 mg/kg), 469 ±43 dpm.
Turning to `CNC(C)C1(c2ccc3ccccc3c2)CCCCC1` (single isomer, unassigned) [58 E2, N-methyl-1-(1-(naphthalen-2-yl)cyclohexyl)ethanamine], 100 nM corresponded to half-maximal inhibition against serotonin transporter (Rat IC50 (nM) rSERT) (IC50).
Take `NCC1(c2cccc3ccccc23)CCCCC1` [Compound 12, (1-(naphthalen-1-yl)cyclohexyl)methanamine]: the results for the IC50 on serotonin transporter (read-out: Rat IC50 (nM) rSERT) and at dopamine transporter (read-out: Rat IC50 (nM) rDAT) were 1100 nM and 1900 nM, respectively.
As for `NCC1(c2ccc(OC(F)(F)F)cc2)CCCCC1` [Compound 15, (1-(4-(trifluoromethoxy)phenyl)cyclohexyl)methanamine], the results for the IC50 in assay [4] (Human IC50 (nM) hSERT), in assay [5] and in assay [6] were 1400 nM, > 10000 nM and > 10000 nM, respectively.
On to `NCC1(c2ccc(F)c(F)c2)CCCCC1` [Compound 30, (1-(3,4-difluorophenyl)cyclohexyl)methanamine hydrochloride], for which the results for the IC50 in assay [4] (setting [8]), in assay [5] and in [6] were 4520 nM, > 10000 nM and 5870 nM, respectively.
As to `NCC1(c2ccccc2)CCCCC1` [Compound 31, (1-phenylcyclohexyl)methaneamine hydrochloride], the IC50 in assay [4] (setting [8]), in assay [5] and in assay [6] was > 10000 nM in each case.
Consider `NCC1(c2ccc(Cl)cc2Cl)CCCCC1` [Compound 38, (1-(2,4-dichlorophenyl)cyclohexyl)methanamine], for which the IC50 in assay [4] (Human IC50 (nM) hSERT) is 472 nM; in [5], > 10000 nM; in assay [6], 9650 nM.
Turning to `CNCC1(c2ccccc2)CCCCC1` [Compound 80, N-methyl(1-phenylcyclohexyl)methanamine (hydrochloride)], the IC50 in assay [4] (setting [8]) is 9170 nM; in [5] it was > 10000 nM; in [6] it was > 10000 nM.
`CC1(O)CCC(CN)(c2ccc3ccccc3c2)CC1` (stereo not drawn) [Compound 209, 4-(aminomethyl)-1-methyl-4-(naphthalen-2-yl)cyclohexanol]: the IC50 was 1160 nM in assay [4] (setting [8]), > 10000 nM in assay [5] and 4760 nM in assay [6].
Consider `CC1(O)CCC(CN)(c2ccc(OC(F)(F)F)cc2)CC1` (stereo not drawn) [Compound 219, 4-(aminomethyl)-1-methyl-4-(4-(trifluoromethoxy)phenyl)-cyclohexanol], for which the IC50 in [4] (setting [8]) was 269 nM; in [5], > 10000 nM; in [6], > 10000 nM.
Take `CNCC1(c2ccc3c(c2)OCO3)CCC(O)CC1` (stereo not drawn) [Compound 237, 4-(benzo[d][1,3]dioxol-5-yl)-4-((methylamino)methyl)cyclohexanol]: the IC50 in assay [4] (setting [8]) was 7300 nM; in [5], > 10000 nM; in [6], 9130 nM.
With `CNCC1(c2ccc(OC(F)(F)F)cc2)CCC(O)CC1` (stereo not drawn) [Compound 249, 4-((methylamino)methyl)-4-(4-(trifluoromethoxy)phenyl)cyclohexanol], the figures for the IC50 in [4] (setting [8]), in [5] and in assay [6] were 405 nM, > 10000 nM and > 10000 nM, respectively.
Turning to `COC1CCC(CN(C)C)(c2ccc(Cl)c(Cl)c2)CC1` (stereo not drawn) [Compound 256, 1-(1-(3,4-dichlorophenyl)-4-methoxycyclohexyl)-N,N-dimethylmethanamine], the IC50 in assay [4] (setting [8]) came to 69 nM; on serotonin transporter (read-out: Rat IC50 (nM) rSERT), 280 nM; at dopamine transporter (read-out: Rat IC50 (nM) rDAT), 990 nM; in assay [6], 157 nM.
On to `CN(C)CC1(c2ccc(Cl)c(Cl)c2)CCC(F)(F)CC1` [Compound 269, 1-(1-(3,4-dichlorophenyl)-4,4-difluorocyclohexyl)-N,N-dimethylmethanamine], for which the IC50 in assay [4] (setting [8]) was 787 nM; in assay [5] it was 36 nM; in assay [6] it was < 1 nM.
Take `CN(C)CC1(c2ccc(Cl)c(Cl)c2)CCC(C)(O)CC1` (stereo not drawn) [Compound 277, 4-(3,4-dichlorophenyl)-4-((dimethylamino)methyl)-1-methylcyclohexanol]: the concentration for half-maximal inhibition (IC50) in assay [4] (setting [8]) was 34 nM; against serotonin transporter (Rat IC50 (nM) rSERT) it was 42 nM; on dopamine transporter (Rat IC50 (nM) rDAT), 43 nM. Further, the “% Transporter Occupancy, DAT” value in [2] (1 mg/kg) is 17%; in assay [2] (3 mg/kg), 21%; in assay [2] (10 mg/kg), 23%; in [2] (30 mg/kg), 26%. Besides, the “Mean Specific Binding (dpm) ± S.E.M., DAT” value amounted to 35827 ± 2302 dpm in assay [2] (1 mg/kg), 34136 ± 4104 dpm in [2] (3 mg/kg), 33230 ± 2807 dpm in [2] (10 mg/kg) and 31743 ± 4406 dpm in assay [2] (30 mg/kg). The “Rat Locomotor Activity Total Distance Traveled ± S.E.M.” value in the assay with Rats (3 mg/kg) came out at 1406.2 ± 84.9; in the assay with Rats (10 mg/kg), 1861.4 ± 187.8; with Rats (30 mg/kg) it was 2612.4 ± 210.8. For the same molecule, the “% Transporter Occupancy, NET” value is given as 6% in [7] (1 mg/kg), 18% in [7] (3 mg/kg), 47% in [7] (10 mg/kg) and 71% in assay [7] (30 mg/kg). Besides, the “Mean Specific Binding (dpm) ± S.E.M., NET” value amounted to 950 ± 46 dpm in [7] (1 mg/kg), 824 ± 30 dpm in assay [7] (3 mg/kg), 533 ± 25 dpm in assay [7] (10 mg/kg) and 294 ± 42 dpm in assay [7] (30 mg/kg). Also, the “% Transporter Occupancy, SERT” value in assay [3] (1 mg/kg) is reported as -6%; in assay [3] (3 mg/kg) it was -5%; in assay [3] (10 mg/kg) it was 0%; in assay [3] (30 mg/kg), 3%. The “Mean Specific Binding (dpm) ± S.E.M., SERT” value is 1508 ± 86 dpm in [3] (1 mg/kg), 1491 ± 75 dpm in assay [3] (3 mg/kg), 1416 ± 43 dpm in assay [3] (10 mg/kg) and 1384 ± 101 dpm in assay [3] (30 mg/kg). The “Mouse Locomotor Activity Total Distance Traveled ± S.E.M.” value in the assay on mice (3 mg/kg) came out at 418.8 ± 80.6; with mice (10 mg/kg), 411.8 ± 87.8; with mice (30 mg/kg), 327.7 ± 67.1.

These data come from patent publication EP1976513B1 (priority 2006, dated 2007).
